In patent US20210017193A1, “CONDENSED BICYCLIC HETEROCYCLIC DERIVATIVES AS PEST CONTROL AGENTS” (Bayer Aktiengesellschaft, priority 2018, published 2021):

Columns and labels:
[1] = tested on: Myzus persicae; experiment: Myzus persicae oral test; assay type: in vivo; settings: 120 h, oral uptake from microtitre plates, after 5 days, read-out: efficacy (aphids killed)
Experimental: Myzus persicae—Oral Test Solvent: 100 parts by weight of acetone To produce a suitable preparation of active compound, 1 part by weight of active compound is dissolved using the specified parts by weight of solvent and made up with water until the desired concentration is attained. 50 μl of the active compound preparation are transferred into microtitre plates and made up to a final volume of 200 μl with 150 μl of IPL41 insect medium (33%+15% sugar). Subsequently, the plates are sealed with parafilm, which a mixed population of green peach aphids (Myzus persicae) within a second microtitre plate is able to puncture and imbibe the solution through. After 5 days, the efficacy in % is determined. 100% means that all the aphids have been killed; 0% means that no aphids have been killed.

[2] = tested on: Spodoptera frugiperda; experiment: Spodoptera frugiperda spray test; assay type: in vivo; settings: 100 g/ha, maize leaf discs, after 7 days
Experimental: Spodoptera frugiperda—Spray Test
(§1) Solvent: 78.0 parts by weight of acetone • • 1.5 parts by weight of dimethylformamide
(§2) Emulsifier: alkylaryl polyglycol ether
(§3) To produce a suitable active compound preparation, 1 part by weight of active compound is dissolved using the stated parts by weight of solvent and made up with water containing an emulsifier concentration of 1000 ppm until the desired concentration is attained. To produce further test concentrations, the formulation is diluted with emulsifier-containing water.
Leaf discs of maize (Zea mays) are sprayed with an active compound formulation of the desired concentration and, after drying, populated with caterpillars of the fall armyworm (Spodopterafrugiperda).
After 7 days, the efficacy in % is determined. 100% means that all the caterpillars have been killed; 0% means that no caterpillar has been killed.

[3] = tested on: Diabrotica balteata; experiment: Diabrotica balteata spray test; assay type: in vivo; settings: 160 μg/cavity, sprayed germinated wheat grains, beetle larvae, after 7 days
Experimental: Diabrotica balteata—Spray Test Solvent: 78 parts by weight of acetone • • 1.5 parts by weight of dimethylformamide Emulsifier: alkylaryl polyglycol ether To produce a suitable active compound preparation, 1 part by weight of active compound is dissolved using the stated parts by weight of solvent and made up with water containing an emulsifier concentration of 1000 ppm until the desired concentration is attained. To produce further test concentrations, the formulation is diluted with emulsifier-containing water. Pre-swollen wheat grains (Triticum aestivum) are incubated in a multiwell plate filled with agar and a little water for one day (5 seed grains per cavity). The germinated wheat grains are sprayed with an active compound preparation of the desired concentration. Subsequently, each cavity is infected with 10-20 beetle larvae of Diabrotica balteata. After 7 days, the efficacy in % is determined. 100% means that all wheat plants have grown as in the untreated, uninfected control; 0% means that no wheat plant has grown.

[4] = tested on: Myzus persicae; experiment: Myzus persicae spray test; assay type: in vivo; settings: foliar, 120 h, Chinese cabbage leaf discs, after 5 days, read-out: efficacy (aphids killed)
Experimental: Myzus persicae—Spray Test Solvent: 78 parts by weight of acetone • • 1.5 parts by weight of dimethylformamide Emulsifier: alkylaryl polyglycol ether To produce a suitable active compound preparation, 1 part by weight of active compound is dissolved using the stated parts by weight of solvent and made up with water containing an emulsifier concentration of 1000 ppm until the desired concentration is attained. To produce further test concentrations, the formulation is diluted with emulsifier-containing water. Discs of Chinese cabbage leaves (Brassica pekinensis) infested by all stages of the green peach aphid (Myzus persicae) are sprayed with an active compound formulation of the desired concentration. After 5 days, the efficacy in % is determined. 100% means that all the aphids have been killed; 0% means that no aphids have been killed.

[5] = log P determination by HPLC on reversed-phase column (C18), acidic range; assay type: physicochemical; settings: LC-UV, formic acid in water/acetonitrile
Experimental: log P Values The log P values were determined according to EEC Directive 79/831 Annex V.A8 by HPLC (high-performance liquid chromatography) on a reversed-phase column (C18) using the following methods: ^[a] […] Calibration was carried out using a homologous series of straight-chain alkan-2-ones (having 3 to 16 carbon atoms) with known log P values. The values between successive alkanones are determined by linear regression.

[6] = tested on: Meloidogyne incognita; experiment: Meloidogyne incognita test; assay type: in vivo; settings: 20 ppm, lettuce in sand, after 14 days
Experimental: Meloidogyne incognita test Solvent: 125.0 parts by weight of acetone To produce a suitable active compound formulation, 1 part by weight of active compound is mixed with the stated amount of solvent and the concentrate is diluted to the desired concentration with water. Vessels are filled with sand, active compound solution, an egg/larvae suspension of the southern root-knot nematode (Meloidogyne incognita) and lettuce seeds. The lettuce seeds germinate and the plants develop. The galls develop on the roots. After 14 days, the nematicidal efficacy in % is determined by the formation of galls. 100% means that no galls were found; 0% means that the number of galls on the treated plants corresponds to the untreated control.

[7] = tested on: Phaedon cochleariae; experiment: Phaedon cochleariae spray test; assay type: in vivo; settings: 100 g/ha, Chinese cabbage leaf discs, after 7 days
Experimental: Phaedon cochleariae—Spray Test
as §1, §2, §3
Discs of Chinese cabbage leaves (Brassica pekinensis) are sprayed with an active compound formulation of the desired concentration and, after drying, populated with larvae of the mustard beetle (Phaedon cochleariae).
After 7 days, the efficacy in % is determined. 100% means that all the beetle larvae have been killed; 0% means that no beetle larvae have been killed.

[8] = tested on: Ctenocephalides felis; experiment: Ctenocephalides felis oral test; assay type: in vivo; settings: 100 ppm in citrated cattle blood, adult cat fleas, after 2 days
Experimental: Ctenocephalides felis—Oral Test
Solvent: dimethyl sulfoxide
To produce a suitable active compound formulation, 10 mg of active compound are mixed with 0.5 ml of dimethyl sulfoxide. Dilution with citrated cattle blood gives the desired concentration.
About 20 unfed adult cat fleas (Ctenocephalidesfelis) are placed into a chamber which is closed at the top and bottom with gauze. A metal cylinder whose bottom end is closed with parafilm is placed onto the chamber. The cylinder contains the blood/active compound formulation, which can be imbibed by the fleas through the parafilm membrane.
After 2 days, the kill in % is determined. 100% means that all of the fleas have been killed; 0% means that none of the fleas have been killed.

[9] = tested on: Tetranychus urticae; experiment: Tetranychus urticae spray test, OP-resistant; assay type: in vivo; settings: 100 g/ha, bean leaf discs, after 6 days
Experimental: Tetranychus urticae—Spray Test, OP-Resistant
as §1, §2, §3
Discs of bean leaves (Phaseolus vulgaris) infested with all stages of the greenhouse red spider mite (Tetranychus urticae) are sprayed with an active compound formulation of the desired concentration.
After 6 days, the efficacy in % is determined. 100% means that all the spider mites have been killed; 0% means that no spider mites have been killed.

[10] = tested on: Boophilus microplus; experiment: Boophilus microplus injection test; assay type: in vivo; settings: 20 μg/animal, injection into engorged adult female cattle ticks, assessed after 7 days
Experimental: Boophilus microplus—Injection Test Solvent: dimethyl sulfoxide To produce a suitable active compound formulation, 10 mg of active compound are mixed with 0.5 ml of solvent and the concentrate is diluted to the desired concentration with solvent. 1 μl of the active compound solution is injected into the abdomen of 5 engorged adult female cattle ticks (Boophilus microplus). The animals are transferred into dishes and kept in a climate-controlled room. Efficacy is assessed after 7 days by laying of fertile eggs. Eggs which are not visibly fertile are stored in a climate-controlled cabinet until the larvae hatch after about 42 days. An efficacy of 100% means that none of the ticks has laid any fertile eggs; 0% means that all the eggs are fertile.

SMILES | pest or weed control at 4 ppm [1] [%] | efficacy (caterpillars killed) [2] [%] | efficacy [3] [%] | pest or weed control at 100 g/ha [4] [%] | chromatographic logP [5] | also measured
CCS(=O)(=O)c1c(-c2nc3cc(C(F)(F)F)n(C)c(=O)c3n2C)nc2cc(C(=O)C3CC3)ccn12 [Example I-08] | 100 | 100 | 100 | 90 | – | –
CCS(=O)(=O)c1c(-c2nc3cc(C(F)(F)F)n(C)c(=O)c3n2C)nc2n1CCC(C)(C)C2 [Example I-10, 2-(3-Ethylsulfonyl-7,7-dimethyl-6,8-dihydro-5H-imidazo[1,2-a]pyridin-2-yl)-3,5-dimethyl-6-(trifluoromethyl)imidazo[4,5-c]pyridin-4-one] | 100 | – | 100 | 90 | 2.66 | –
CCS(=O)(=O)c1c(-c2nc3cc(C(F)(F)F)n(C)c(=O)c3n2C)nc2n1CCC(C)C2 (centres unmarked) [Example I-05] | 100 | – | – | 100 | – | nematicidal efficacy (formation of galls) [6]: 90%
CCS(=O)(=O)c1c(-c2nc3cc(C(F)(F)F)n(C)c(=O)c3n2C)nc2cc(C3(C#N)CC3)ccn12 [Example I-02, 1-{2-[3,5-Dimethyl-4-oxo-6-(trifluoromethyl)-4,5-dihydro-3H-imidazo [4,5-c]pyridin-2-yl]-3-(ethylsulfonyl)imidazo[1,2-a]pyridin-7-yl}cyclopropanecarbonitrile] | 100 | 100 | – | 100 | 2.59 | nematicidal efficacy (formation of galls) [6]: 100%; efficacy (beetle larvae killed) [7]: 100%; efficacy (kill in %) [8]: 100%
CCS(=O)(=O)c1c(-c2nc3cc(C(F)(F)F)n(C)c(=O)c3n2C)nc2n1CC(C)CC2 (centres unmarked) [Example I-04] | 100 | – | – | 100 | – | –
CC1(C)CCn2c(nc(C(=O)O)c2Br)C1 [3-Bromo-7,7-dimethyl-6,8-dihydro-5H-imidazo[1,2-a]pyridine-2-carboxylicacid] | – | – | – | – | 0.67 | –
CCS(=O)(=O)c1c(-c2nc3cc(C(F)(F)F)n(C)c(=O)c3n2C)nc2n1CCC(C)C2C (centres unmarked) [Example I-09] | 100 | – | 100 | 90 | – | efficacy (spider mites killed) [9]: 90%
CCS(=O)(=O)c1c(-c2nc3cc(C(F)(F)F)n(C)c(=O)c3n2C)nc2cc(S(=O)(=O)C3CC3)ccn12 [Example I-12, 2-[7-(Cyclopropylsulfonyl)-3-(ethylsulfonyl)imidazo[1,2-a]pyridin-2-yl]-3,5-dimethyl-6-(trifluoromethyl)-3,5-dihydro-4H-imidazo[4,5-c]pyridin-4-one] | 100 | 100 | 100 | – | 2.59 | –
CCS(=O)(=O)c1c(-c2nc3cc(C(F)(F)F)n(C)c(=O)c3n2C)nc2cc(C(F)(F)C3CC3)ccn12 [Example I-07] | 100 | 100 | 100 | – | – | –
Cn1c(C(F)(F)F)cc2nc(-c3nc4n(c3Br)CCC(C)(C)C4)n(C)c2c1=O [2-(3-Bromo-7,7-dimethyl-6,8-dihydro-5H-imidazo[1,2-a]pyridin-2-yl)-3,5-dimethyl-6-(trifluoromethyl)imidazo[4,5-c]pyridin-4-one] | – | – | – | – | 3.14 | –
CCS(=O)(=O)c1c(-c2nc3cc(C(F)(F)F)n(C)c(=O)c3n2C)nc2n1CCCC2 [Example I-03, 2-[3-(Ethylsulfonyl)-5,6,7,8-tetrahydroimidazo[1,2-a]pyridin-2-yl]-3,5-dimethyl-6-(trifluoromethyl)-3,5-dihydro-4H-imidazo[4,5-c]pyridin-4-one] | 100 | – | – | 90 | 2.03 | –
CCS(=O)(=O)c1c(-c2nc3cc(C(F)(F)F)n(C)c(=O)c3n2C)nc2n1CCC(C(F)(F)F)C2 (centres unmarked) [Example I-06] | 100 | 100 | 100 | – | – | –
CCS(=O)(=O)c1c(-c2nc3cc(C(F)(F)F)n(C)c(=O)c3n2C)nc2cc(C(F)(F)F)ccn12 [Example I-01, 2-[3-(Ethylsulfonyl)-7-(trifluoromethyl)imidazo[1,2-a]pyridin-2-yl]-3,5-dimethyl-6-(trifluoromethyl)-3,5-dihydro-4H-imidazo[4,5-c]pyridin-4-one] | 100 | 100 | – | – | 3.2 | efficacy (laying of fertile eggs) [10]: 100%; efficacy (kill in %) [8]: 95%
CCS(=O)(=O)c1c(-c2nc3cc(C(F)(F)F)n(C)c(=O)c3n2C)nc2n1CCCC2C (centres unmarked) [Example I-11] | 100 | – | 100 | 90 | – | –
